# Laboratory results published in patent US6852673B2, “Herbicidal pyridine compounds” (BASF Aktiengesellschaft, priority 1998, dated 2005).
# Experiments:
# Format in all cases: in vivo
# weeds = assay: Post-emergence herbicidal evaluation, overall weed control; details: in barley at crop selective doses
# Experimental: (§1) [table] [table] […] These acetone solutions are diluted with water and the resulting formulations applied at dosage levels equivalent of about 0.03 to 0.4 kg per hectare of test compound per pot. After spraying the plants are placed on greenhouse benches and are cared for in the usual manner, commensurate with conventional greenhouse practices. From 2 to 4 weeks after treatment, the seedling plants are examined and rated according to the rating system provided above. A rating 0 indicates growth as untreated control, a rating 9 indicates death.
# Hordeum vulgare (HORVW) [1] = assay: Post-emergence herbicidal evaluation, winter barley; details: rated 2 to 4 weeks after treatment
# Outline: (§2)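 Emerged seedlings receive a water-diluted acetone formulation at about 0.03 to 0.4 kg per hectare per pot and are grown on in the greenhouse. Scoring after 2–4 weeks uses a 0 (untreated-like growth) to 9 (death) scale.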
# [2] = test system: Cassia obtusifolia (CASOB); assay: Post-emergence herbicidal evaluation, sicklepod; details: rated 2 to 4 weeks after treatment
# Experimental: as §1
# [3] = test system: Cassia obtusifolia (CASOB); assay: Pre-emergence herbicidal evaluation, sicklepod; details: dose 0.4 kg/ha
# From the text: The pre-emergence herbicidal activity of the compounds of the present invention is exemplified by the following test in which the seeds of a variety of monocotyledonous and dicotyledonous plants are seperately mixed with potting soil and planted on top of approximately one inch of soil in separate pots. After planting, the pots are sprayed with the selected aqueous acetone solution containing test compound in sufficient quantity to provide the equivalent of about 0.0125 to 0.4 kg per hectare of test compound per pot. The treated pots are then placed on greenhouse benches, watered and cared for in accordance with conventional greenhouse procedures. From 2 to 4 weeks after treatment, the tests are terminated and each pot is examined and rated according to the rating system set forth below.
# [4] = test system: Echinochloa grus galli (ECHCG); assay: Pre-emergence herbicidal evaluation, barnyard grass
# Outline: (§3)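 Seeds planted in potting soil, then pots sprayed pre-emergence with aqueous acetone solution of test compound at about 0.0125 to 0.4 kg/ha. Kept under standard greenhouse care; injury rated 2 to 4 weeks after treatment.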
# [5] = test system: Ambrosia artemiisifolia (AMBEL); assay: Pre-emergence herbicidal evaluation, ragweed
# Outline: as §3
# Solanum nigrum (SOLNI) = assay: Post-emergence herbicidal evaluation, black nightshade; details: rated 2 to 4 weeks after treatment
# Outline: as §2
# Lamium purpureum (LAMPU) = assay: Pre-emergence herbicidal evaluation, purple deadnettle
# Outline: as §3
# [6] = test system: Digitaria sanguinalis (DIGSA); assay: Pre-emergence herbicidal evaluation, large crabgrass
# Outline: as §3
# Hordeum vulgare (HORVW) [7] = assay: Pre-emergence herbicidal evaluation, winter barley
# Outline: as §3
compound,measurement,setting,value
Cc1cc(OCC(F)(F)C(F)F)nc(Oc2cc(C(F)(F)F)nn2C)c1 [Example 6],broad-leaved weed control,weeds,effective
same,HORVW rating,Hordeum vulgare (HORVW) [1]; dose 0.1 kg/ha,2 (2 - Slight effect)
same,HORVW rating,Hordeum vulgare (HORVW) [1]; dose 0.25 kg/ha,1 (1 - Trace effect)
same,HORVW rating,Hordeum vulgare (HORVW) [1]; dose 0.4 kg/ha,3 (3 - Moderate effect)
same,CASOB rating,[2]; dose 0.25 kg/ha,4 (4 - Injury)
same,CASOB rating,[2]; dose 0.4 kg/ha,6 (6 - Herbicidal effect)
same,CASOB rating,[3],9 (9 - Complete kill)
same,ECHCG rating,[4]; dose 0.013 kg/ha,0 (0 - No effect)
same,ECHCG rating,[4]; dose 0.025 kg/ha,3 (3 - Moderate effect)
same,ECHCG rating,[4]; dose 0.1 kg/ha,8 (8 - Approaching complete kill)
same,ECHCG rating,[4]; dose 0.4 kg/ha,9 (9 - Complete kill)
same,AMBEL rating,[5]; dose 0.013 kg/ha,1 (1 - Trace effect)
same,AMBEL rating,[5]; dose 0.025 kg/ha,1 (1 - Trace effect)
same,AMBEL rating,[5]; dose 0.1 kg/ha,9 (9 - Complete kill)
same,AMBEL rating,[5]; dose 0.4 kg/ha,9 (9 - Complete kill)
same,SOLNI rating,Solanum nigrum (SOLNI); dose 0.1 kg/ha,2 (2 - Slight effect)
same,SOLNI rating,Solanum nigrum (SOLNI); dose 0.25 kg/ha,1 (1 - Trace effect)
same,SOLNI rating,Solanum nigrum (SOLNI); dose 0.4 kg/ha,4 (4 - Injury)
same,LAMPU rating,Lamium purpureum (LAMPU); dose 0.013 kg/ha,7 (7 - Good herbicidal effect)
same,LAMPU rating,Lamium purpureum (LAMPU); dose 0.025 kg/ha,7 (7 - Good herbicidal effect)
same,LAMPU rating,Lamium purpureum (LAMPU); dose 0.1 kg/ha,9 (9 - Complete kill)
same,LAMPU rating,Lamium purpureum (LAMPU); dose 0.4 kg/ha,9 (9 - Complete kill)
same,DIGSA rating,[6]; dose 0.013 kg/ha,1 (1 - Trace effect)
same,DIGSA rating,[6]; dose 0.025 kg/ha,2 (2 - Slight effect)
same,DIGSA rating,[6]; dose 0.1 kg/ha,9 (9 - Complete kill)
same,DIGSA rating,[6]; dose 0.4 kg/ha,9 (9 - Complete kill)
same,HORVW rating,Hordeum vulgare (HORVW) [7]; dose 0.013 kg/ha,0 (0 - No effect)
same,HORVW rating,Hordeum vulgare (HORVW) [7]; dose 0.025 kg/ha,0 (0 - No effect)
same,HORVW rating,Hordeum vulgare (HORVW) [7]; dose 0.1 kg/ha,2 (2 - Slight effect)
same,HORVW rating,Hordeum vulgare (HORVW) [7]; dose 0.4 kg/ha,3 (3 - Moderate effect)
